ChEMBL document CHEMBL4177650, “Synthesis and biological evolution of hydrazones derived from 4-(trifluoromethyl)benzohydrazide” (Bioorg Med Chem Lett, 2017)
In brackets after ≈: the same amount, converted by molar mass. Activity calls are given as the source filed them. No cut-off for these calls is given here.

What was measured:
[1] = tested on: Trichophyton mentagrophytes; assay: Antifungal activity against Trichophyton mentagrophytes 445 after 72 hrs by microdilution broth method; type: functional; settings: Trichophyton mentagrophytes, 445, 72 h
Candida tropicalis [2] = assay: Antifungal activity against Candida tropicalis 156 after 48 hrs by microdilution broth method; type: functional; settings: Candida tropicalis, 156, 48 h
Escherichia coli [3] = assay: Antibacterial activity against gram-negative Escherichia coli CCM 4517 after 48 hrs by microdilution broth method; type: functional; settings: CCM 4517, 48 h
Mycobacterium avium [4] = assay: Antimycobacterial activity against Mycobacterium avium 330/88 after 21 days by micromethod; type: functional; settings: 330/88, 504 h
Mycobacterium kansasii [5] = assay: Antimycobacterial activity against Mycobacterium kansasii 6509/96 after 14 days by micromethod; type: functional; settings: 6509/96, 336 h
Staphylococcus aureus [6] = assay: Antibacterial activity against gram-positive methicillin-resistant Staphylococcus aureus H 5996/08 after 48 hrs by microdilution broth method; type: functional; settings: H 5996/08, 48 h
[7] = Selectivity index, ratio of IC50 for human HepG2 cells to MIC for Trichophyton mentagrophytes 445; type: toxicity; settings: read-out: Selectivity Index
Staphylococcus aureus [8] = assay: Antibacterial activity against gram-positive methicillin-resistant Staphylococcus aureus H 5996/08 after 24 hrs by microdilution broth method; type: functional; settings: H 5996/08, 24 h
Mycobacterium kansasii [9] = assay: Antimycobacterial activity against Mycobacterium kansasii 6509/96 after 21 days by micromethod; type: functional; settings: 6509/96, 504 h
Klebsiella pneumoniae [10] = assay: Antibacterial activity against gram-negative Klebsiella pneumoniae D 11750/08 after 24 to 48 hrs by microdilution broth method; type: functional, organism-based
Lichtheimia corymbifera = assay: Antifungal activity against Absidia corymbifera 272 after 24 to 48 hrs by microdilution broth method; type: functional, organism-based
[11] = tested on: Staphylococcus epidermidis; assay: Antibacterial activity against gram-positive Staphylococcus epidermidis H 6966/08 after 24 hrs by microdilution broth method; type: functional; settings: H 6966/08, 24 h
Candida albicans = assay: Antifungal activity against Candida albicans ATCC 44859 after 24 to 48 hrs by microdilution broth method; type: functional, organism-based
MONO-MAC-6 [12] = assay: Cytostatic activity against human MONO-MAC-6 cells incubated overnight followed by compound wash measured after 72 hrs by MTT assay; type: ADME, cell-based; settings: MONO-MAC-6, 72 h
[13] = tested on: Mycobacterium tuberculosis; assay: Antimycobacterial activity against Mycobacterium tuberculosis H37Rv 331/88 after 14 days by micromethod; type: functional; settings: H37Rv 331/88, 336 h
Staphylococcus aureus [14] = assay: Antibacterial activity against gram-positive Staphylococcus aureus CCM 4516/08 after 48 hrs by microdilution broth method; type: functional; settings: CCM 4516/08, 48 h
Pseudomonas aeruginosa = assay: Antibacterial activity against gram-negative Pseudomonas aeruginosa CCM 1961 after 48 hrs by microdilution broth method; type: functional, organism-based
Staphylococcus aureus [15] = assay: Antibacterial activity against gram-positive Staphylococcus aureus CCM 4516/08 after 24 hrs by microdilution broth method; type: functional; settings: CCM 4516/08, 24 h
Nakaseomyces glabratus [16] = assay: Antifungal activity against Candida glabrata 20/I after 24 hrs by microdilution broth method; type: functional
Aspergillus fumigatus = assay: Antifungal activity against Aspergillus fumigatus 231 after 24 to 48 hrs by microdilution broth method; type: functional, organism-based
MONO-MAC-6 [17] = assay: Cytotoxicity against human MONO-MAC-6 cells after overnight incubation by MTT assay; type: functional, cell-based
HepG2 [18] = assay: Cytotoxicity against human HepG2 cells after overnight incubation by MTT assay; type: cell-based
Escherichia coli [19] = assay: Antibacterial activity against gram-negative Escherichia coli CCM 4517 after 24 hrs by microdilution broth method; type: functional; settings: CCM 4517, 24 h
Enterococcus faecalis [20] = assay: Antibacterial activity against gram-positive Enterococcus faecalis J 14365/08 after 24 hrs by microdilution broth method; type: functional; settings: J 14365/08, 24 h
[21] = tested on: Staphylococcus epidermidis; assay: Antibacterial activity against gram-positive Staphylococcus epidermidis H 6966/08 after 48 hrs by microdilution broth method; type: functional; settings: H 6966/08, 48 h
[22] = tested on: Mycobacterium tuberculosis; assay: Antimycobacterial activity against Mycobacterium tuberculosis H37Rv 331/88 after 21 days by micromethod; type: functional; settings: H37Rv 331/88, 504 h
Mycobacterium avium [23] = assay: Antimycobacterial activity against Mycobacterium avium 330/88 after 14 days by micromethod; type: functional; settings: 330/88, 336 h
Nakaseomyces glabratus [24] = assay: Antifungal activity against Candida glabrata 20/I after 48 hrs by microdilution broth method; type: functional
[25] = Selectivity index, ratio of IC50 for human HepG2 cells to MIC for Candida glabrata 20/I; type: toxicity; settings: read-out: Selectivity Index
[26] = Cytotoxicity against mouse bone marrow macrophages after overnight incubation by MTT assay; settings: BMDM
Mycobacterium kansasii [27] = assay: Antimycobacterial activity against Mycobacterium kansasii 6509/80 after 14 days by micromethod; type: functional; settings: 6509/80, 336 h
Candida tropicalis [28] = assay: Antifungal activity against Candida tropicalis 156 after 24 hrs by microdilution broth method; type: functional; settings: Candida tropicalis, 156, 24 h
Mycobacterium kansasii [29] = assay: Antimycobacterial activity against Mycobacterium kansasii 6509/96 after 7 days by micromethod; type: functional; settings: 6509/96, 168 h
[30] = tested on: Trichophyton mentagrophytes; assay: Antifungal activity against Trichophyton mentagrophytes 445 after 120 hrs by microdilution broth method; type: functional; settings: Trichophyton mentagrophytes, 445, 120 h
Trichosporon asahii = assay: Antifungal activity against Trichosporon asahii 1188 after 24 to 48 hrs by microdilution broth method; type: functional, organism-based
Mycobacterium kansasii [31] = assay: Antimycobacterial activity against Mycobacterium kansasii 6509/80 after 21 days by micromethod; type: functional; settings: 6509/80, 504 h
HepG2 [32] = assay: Cytostatic activity against human HepG2 cells incubated overnight followed by compound wash measured after 72 hrs by MTT assay; type: ADME, cell-based; settings: HepG2, 72 h
Pichia kudriavzevii [33] = assay: Antifungal activity against Candida krusei E28 after 24 hrs by microdilution broth method; type: functional; settings: E28, 24 h
Pichia kudriavzevii [34] = assay: Antifungal activity against Candida krusei E28 after 48 hrs by microdilution broth method; type: functional; settings: E28, 48 h
Klebsiella pneumoniae [35] = assay: Antibacterial activity against extended spectrum beta-lactamase-positive Klebsiella pneumoniae J 14368/08 after 24 to 48 hrs by microdilution broth method; type: functional, organism-based
Enterococcus faecalis [36] = assay: Antibacterial activity against gram-positive Enterococcus faecalis J 14365/08 after 48 hrs by microdilution broth method; type: functional; settings: J 14365/08, 48 h
Mycobacterium kansasii [37] = assay: Antimycobacterial activity against Mycobacterium kansasii 6509/80 after 7 days by micromethod; type: functional; settings: 6509/80, 168 h
[38] = Selectivity index, ratio of IC50 for human HepG2 cells to MIC for Mycobacterium kansasii 6509/80; type: toxicity; settings: read-out: Selectivity Index
[39] = Selectivity index, ratio of IC50 for human HepG2 cells to MIC for Mycobacterium tuberculosis H37Rv 331/88; type: toxicity; settings: read-out: Selectivity Index
[40] = Selectivity index, ratio of IC50 for human HepG2 cells to MIC for gram-positive Staphylococcus aureus CCM 4516/08; type: toxicity; settings: read-out: Selectivity Index
[41] = Selectivity index, ratio of IC50 for human HepG2 cells to MIC for Mycobacterium kansasii 6509/96; type: toxicity; settings: read-out: Selectivity Index
[42] = Selectivity index, ratio of IC50 for human HepG2 cells to MIC for Mycobacterium avium 330/88; type: toxicity; settings: read-out: Selectivity Index

In the case of `O=C(N/N=C/c1ccccc1O)c1ccc(C(F)(F)F)cc1`, the MIC [1] is reported as 7.81 µM (≈ 2.41 µg/mL), the MIC (Candida tropicalis [2]) is reported as > 125 µM and the MIC (Escherichia coli [3]) is reported as 500 µM (≈ 154 µg/mL). The MIC (Mycobacterium avium [4]) was 250 µM (≈ 77.1 µg/mL), the MIC (Mycobacterium kansasii [5]) was 250 µM (≈ 77.1 µg/mL) and the MIC (Staphylococcus aureus [6]) was > 500 µM. The selectivity ratio [7] was > 6.4, the MIC (Staphylococcus aureus [8]) was 500 µM (≈ 154 µg/mL) and the MIC (Mycobacterium kansasii [9]) was 250 µM (≈ 77.1 µg/mL). The Activity (Klebsiella pneumoniae [10]) was “inactive”, the Activity (Lichtheimia corymbifera) was “inactive” and the MIC [11] was 250 µM (≈ 77.1 µg/mL). The Activity (Candida albicans) was “inactive”, the IC50 (MONO-MAC-6 [12]) was 1.7 µM and the MIC [13] was 125 µM (≈ 38.5 µg/mL). The MIC (Staphylococcus aureus [14]) was > 500 µM, the Activity (Pseudomonas aeruginosa) was “inactive” and the MIC (Staphylococcus aureus [15]) was 500 µM (≈ 154 µg/mL). The MIC (Nakaseomyces glabratus [16]) was 3.9 µM (≈ 1.2 µg/mL), the Activity (Aspergillus fumigatus) was “inactive” and the IC50 (MONO-MAC-6 [17]) was 2.28 µM. The IC50 (HepG2 [18]) was > 100 µM, the MIC (Escherichia coli [19]) was 500 µM (≈ 154 µg/mL) and the MIC (Enterococcus faecalis [20]) was 250 µM (≈ 77.1 µg/mL). It also gave an MIC [21] of 500 µM (≈ 154 µg/mL), an MIC [22] of 250 µM (≈ 77.1 µg/mL) and an MIC (Mycobacterium avium [23]) of 125 µM (≈ 38.5 µg/mL). The MIC (Nakaseomyces glabratus [24]) was 15.6 µM (≈ 4.82 µg/mL), the selectivity ratio [25] was > 6.4 and the IC50 [26] was > 100 µM. The MIC (Mycobacterium kansasii [27]) was 250 µM (≈ 77.1 µg/mL), the MIC (Candida tropicalis [28]) was > 125 µM and the MIC (Mycobacterium kansasii [29]) was 250 µM (≈ 77.1 µg/mL). For the same compound, the MIC [30] was 15.6 µM (≈ 4.82 µg/mL), the Activity (Trichosporon asahii) was “inactive” and the MIC (Mycobacterium kansasii [31]) was 250 µM (≈ 77.1 µg/mL). The IC50 (HepG2 [32]) was 6.2 µM, the MIC (Pichia kudriavzevii [33]) was > 125 µM and the MIC (Pichia kudriavzevii [34]) was > 125 µM. The Activity (Klebsiella pneumoniae [35]) was “inactive”, the MIC (Enterococcus faecalis [36]) was 250 µM (≈ 77.1 µg/mL) and the MIC (Mycobacterium kansasii [37]) was 250 µM (≈ 77.1 µg/mL).

In the case of `O=C(N/N=C/c1ccc(Cl)cc1)c1ccc(C(F)(F)F)cc1`, the MIC [1] is reported as 125 µM (≈ 40.8 µg/mL), the MIC (Candida tropicalis [2]) is reported as 125 µM (≈ 40.8 µg/mL) and the MIC (Escherichia coli [3]) is reported as > 125 µM. For the same compound, the MIC (Mycobacterium avium [4]) was > 125 µM, the MIC (Mycobacterium kansasii [5]) was 16 µM (≈ 5.23 µg/mL) and the selectivity ratio [38] was > 6.25. For the same compound, the MIC (Staphylococcus aureus [6]) was 62.5 µM (≈ 20.4 µg/mL), the MIC (Staphylococcus aureus [8]) was 62.5 µM (≈ 20.4 µg/mL) and the MIC (Mycobacterium kansasii [9]) was 16 µM (≈ 5.23 µg/mL). For the same compound, the Activity (Klebsiella pneumoniae [10]) was “inactive”, the Activity (Lichtheimia corymbifera) was “inactive” and the MIC [11] was 31.2 µM (≈ 10.2 µg/mL). For the same compound, the selectivity ratio [39] was > 6.25, the Activity (Candida albicans) was “inactive” and the IC50 (MONO-MAC-6 [12]) was > 100 µM. The MIC [13] was 16 µM (≈ 5.23 µg/mL), the MIC (Staphylococcus aureus [14]) was 62.5 µM (≈ 20.4 µg/mL) and the Activity (Pseudomonas aeruginosa) was “inactive”. For the same compound, the MIC (Staphylococcus aureus [15]) was 62.5 µM (≈ 20.4 µg/mL), the MIC (Nakaseomyces glabratus [16]) was > 125 µM and the Activity (Aspergillus fumigatus) was “inactive”. The IC50 (MONO-MAC-6 [17]) was > 100 µM, the IC50 (HepG2 [18]) was > 100 µM and the MIC (Escherichia coli [19]) was > 125 µM. For the same compound, the MIC (Enterococcus faecalis [20]) was 62.5 µM (≈ 20.4 µg/mL), the MIC [21] was 62.5 µM (≈ 20.4 µg/mL) and the MIC [22] was 16 µM (≈ 5.23 µg/mL). The MIC (Mycobacterium avium [23]) was > 125 µM, the MIC (Nakaseomyces glabratus [24]) was > 125 µM and the IC50 [26] was 7.05 µM. The MIC (Mycobacterium kansasii [27]) was 16 µM (≈ 5.23 µg/mL), the MIC (Candida tropicalis [28]) was 125 µM (≈ 40.8 µg/mL) and the selectivity ratio [40] was > 1.6. For the same compound, the MIC (Mycobacterium kansasii [29]) was 16 µM (≈ 5.23 µg/mL), the MIC [30] was 125 µM (≈ 40.8 µg/mL) and the Activity (Trichosporon asahii) was “inactive”. The selectivity ratio [41] was > 6.25, the MIC (Mycobacterium kansasii [31]) was 16 µM (≈ 5.23 µg/mL) and the IC50 (HepG2 [32]) was > 100 µM. The MIC (Pichia kudriavzevii [33]) was 62.5 µM (≈ 20.4 µg/mL), the MIC (Pichia kudriavzevii [34]) was 62.5 µM (≈ 20.4 µg/mL) and the Activity (Klebsiella pneumoniae [35]) was “inactive”. For the same compound, the selectivity ratio [42] was > 6.25, the MIC (Enterococcus faecalis [36]) was > 125 µM and the MIC (Mycobacterium kansasii [37]) was 16 µM (≈ 5.23 µg/mL).
